The values below come from patent US20260240846A1, “ZAK ALPHA KINASE (MAP3K20) INHIBITORS FOR USE IN THE TREATMENT OF ANEMIA” (UNIVERSIDAD DE MURCIA, priority 2023, published 2026).

Assay [1] has as its system zebrafish larvae. Description: Chemical treatment of zebrafish larvae by bath immersion; counting of neutrophils and erythrocytes. In kind it is in vivo, Zebrafish (Danio rerio H.). As for the experimental part:
FIG. 3. ZAKα regulates hematopoiesis in zebrafish through the Nlrp1 inflammasome. Number of neutrophils (B, D, H), erythrocytes (F) and macrophages (J), and caspase-1 activity (K) in 2 dpf larvae either treated from 1 to 2 dpf by bath immersion with 1 μM nilotinib and/or 100 μM anisomycin (A-D) or obtained by injecting one-cell stage embryos with standard or zaka crRNAs/Cas9 complexes (E-K). Representative images of neutrophils (A, C, G), erythrocytes (E) and macrophages (I) are also shown. Each dot represents one individual and the mean±SEM for each group is also shown. P values were calculated using one-way ANOVA and Tukey's multiple range test (B) or Student's t-test (D, F, H, J, K). n.s., non-significant; *P<0.05; **P<0.01; ***P<0.001.
FIG. 6. NLRP1 is activated by phosphorylation of the linker domain after activation of ZAKα and pharmacological inhibition of this signaling pathway promotes erythropoiesis in DBA. (A-D) Number of neutrophils (A-C), and caspase-1 activity (D) in 2 dpf larvae obtained by injection of one-cell stage embryos with human NLRP1 (wild type-WT, S107A and S107D) and treated from 1 to 2 dpf by bath immersion with 1 μM nilotinib (B-D). Representative images of neutrophils (arrows) are also shown in C. (E, F) BMMCs from a DBA patient were incubated for 2 weeks in human methylcellulose complete medium at 37° C. in the presence or absence of the indicated concentrations of nilotinib, and colonies were counted using standard morphological criteria. Each dot represents one individual and the mean±SEM for each group is also shown. P values were calculated by one-way ANOVA and Tukey's multiple range test. n.s., non-significant; *P<0.05; **P<0.01; ***P<0.001; ****P<0.0001.
FIG. 10. Imatinib and dasatinib promote erythropoiesis in human and zebrafish. (A) K562 cells were pretreated with the indicated concentrations of nilotinib, imatinib or dasatinib for 24 h and then differentiated with 50 μM hemin for 24 h. The amounts of NLRP1, GATA1, phosphorylated P38, total ZAKα and ACTB were then evaluated by western blot. (B) Zebrafish larvae were treated from 1 to 2 dpf with the indicated concentrations of nilotinib, imatinib or dasatinib. Representative images and number of neutrophils in larvae of 2 dpf treated by bath immersion with the indicated concentrations of imatinib and dasatinib. Each dot represents one individual and the mean±SEM for each group is also shown. P values were calculated by one-way ANOVA and Tukey's multiple range test. n.s., non-significant. ***P<0.001; ****P<0.0001.
FIG. 11. Ponatinib and bosutinib promote erythropoiesis in human and zebrafish. (A) K562 cells were pretreated with the indicated concentrations of nilotinib, ponatinib and bosutinib for 24 h and then differentiated with 50 μM hemin for the indicated times. The amounts of NLRP1, total ZAKα, GATA1, phosphorylated P38 and ACTB were then evaluated by western blot. (B) Number of neutrophils in larvae of 2 dpf treated by bath immersion with the indicated concentrations of ponatinib and bosutinib. Each dot represents one individual and the mean±SEM for each group is also shown. P values were calculated by one-way ANOVA and Tukey's multiple range test. n.s., non-significant, *P<0.05. **P<0.01. ***P<0.001.
Zebrafish (Danio rerio H.) were obtained from the Zebrafish International Resource Center and mated, staged, raised and processed as described in The Zebarfish Book. The lines Tg(mpx:eGFP)^t114, Tg(lyz:DsRED2)^n250, Tg(mfap4:mCherry)^ump6, Tg(gata1a:DsRed)^sd2 Tg(runx1:GAL4)^utn6), Tg(UAS-E1B:NTR-mCherry) and casper (mitfa^w2/w2; mpv17^a9/a9) were previously described. spint1a^hi2217Tg/hi2217Tg was isolated from insertional mutagenesis screens. The experiments performed comply with the Guidelines of the European Union Council (Directive 2010/63/EU) and the Spanish RD 53/2013. The experiments and procedures performed were approved by the Bioethical Committees of the University of Murcia (approval number #669/2020). […]

Assay [2] deals with caspase-1. The assay can be described thus: CASP1 activity in RPS19-edited model of DBA. The format is cell-based, human. The settings on record: 0.1 μM nilotinib (FIG. 14D). As for the experimental part: FIG. 14. Nilotinib promotes erythropoiesis in a human RPS19-edited model of DBA. RPS19 gene was edited in primary human CD34^+/CD133^+ cells with CRISPR-Cas9 technology and the cells were then differentiated with EPO for 13 days in the presence of absence of 0.1 μM nilotinib. (A) Representative flow cytometry dot plots of CD235-APC vs. CD71-FITC from control and RPS19-edited cells at 13 days of differentiation with EPO. (B) Cell surface expression of CD235A from control (mock) and RPS19-deficient cells treated with DMSO or nilotinib. (C) Percentage of mature erythrocytes (CD71^−/CD235A^+) vs. percentage of erythroid progenitors (CD71^+/CD235A^−) in RPS19-deficient cells treated with DMSO or 0.1 μM nilotinib. (D) CASP1 activity of control and RPS19-deficient cells treated with DMSO or 0.1 μM nilotinib. MFI, mean fluorescence intensity.

The target of assay [3] is ZAKα (Homo sapiens, UniProt Q9NYL2). The settings on record: cited from earlier work.
Chain of ZAKα (Q9NYL2 whole entry): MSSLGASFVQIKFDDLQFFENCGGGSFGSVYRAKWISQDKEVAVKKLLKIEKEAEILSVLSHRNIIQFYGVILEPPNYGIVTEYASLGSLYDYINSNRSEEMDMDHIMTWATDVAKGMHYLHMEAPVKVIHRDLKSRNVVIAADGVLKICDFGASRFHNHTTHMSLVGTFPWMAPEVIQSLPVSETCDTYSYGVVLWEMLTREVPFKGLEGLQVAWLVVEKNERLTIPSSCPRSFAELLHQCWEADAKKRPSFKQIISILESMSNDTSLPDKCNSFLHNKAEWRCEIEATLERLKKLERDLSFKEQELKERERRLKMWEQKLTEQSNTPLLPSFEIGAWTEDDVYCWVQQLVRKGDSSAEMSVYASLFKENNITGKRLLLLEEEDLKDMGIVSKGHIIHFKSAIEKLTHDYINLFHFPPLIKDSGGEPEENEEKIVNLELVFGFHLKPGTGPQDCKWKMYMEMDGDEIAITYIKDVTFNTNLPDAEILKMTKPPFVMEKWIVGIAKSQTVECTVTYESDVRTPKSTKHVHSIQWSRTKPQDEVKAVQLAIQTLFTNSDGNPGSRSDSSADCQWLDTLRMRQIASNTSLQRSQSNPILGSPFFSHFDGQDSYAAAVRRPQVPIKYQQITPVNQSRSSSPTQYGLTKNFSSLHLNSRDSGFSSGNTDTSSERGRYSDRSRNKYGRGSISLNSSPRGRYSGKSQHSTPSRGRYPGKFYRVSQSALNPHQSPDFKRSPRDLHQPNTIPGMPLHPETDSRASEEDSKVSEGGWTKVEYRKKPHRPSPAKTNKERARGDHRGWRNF

Consider `Cc1cn(-c2cc(NC(=O)c3ccc(C)c(Nc4nccc(-c5cccnc5)n4)c3)cc(C(F)(F)F)c2)cn1` [nilotinib], for which the “neutrophilia in the Spint1a-deficient model of neutrophilic inflammation” value in assay [1] (larvae 2 dpf, bath immersion 1 to 2 dpf, 1 μM nilotinib) is reported as “reduced neutrophilia”. The “neutrophilia induced by NLRP1 with phosphomimetic S107D mutation” value in assay [1] (larvae expressing human NLRP1 S107D, 1 μM nilotinib 1 to 2 dpf) was “failed to reverse”. Further, the “neutrophilia induced by wild type NLRP1” value in assay [1] (larvae expressing human wild type NLRP1, 1 μM nilotinib 1 to 2 dpf) was “able to abrogate”. In addition, the erythropoiesis in zebrafish entry in assay [1] (nilotinib (FIGS. 3E and 3F)) is reported as “Promote erythropoiesis in zebrafish”. In addition, the neutrophil number result in assay [1] (wild type larvae 2 dpf, bath immersion 1 to 2 dpf, 1 μM nilotinib, 100 μM anisomycin) is given as “caused a decrease in neutrophil number”. Further, the “exacerbated caspase-1 activity of RPS19-deficient cells” value in assay [2] was “reduced to control levels”. Moreover, the “affinity for ZAKα” value in assay [3] is listed as “high affinity”.
